The results in this text go back to ChEMBL document CHEMBL5727152, “Ethyldiamine orexin receptor antagonists” (2018).

The test deals with T1, Orexin receptor type 2 (Homo sapiens, UniProt O43614).
T1 sequence (O43614 whole entry): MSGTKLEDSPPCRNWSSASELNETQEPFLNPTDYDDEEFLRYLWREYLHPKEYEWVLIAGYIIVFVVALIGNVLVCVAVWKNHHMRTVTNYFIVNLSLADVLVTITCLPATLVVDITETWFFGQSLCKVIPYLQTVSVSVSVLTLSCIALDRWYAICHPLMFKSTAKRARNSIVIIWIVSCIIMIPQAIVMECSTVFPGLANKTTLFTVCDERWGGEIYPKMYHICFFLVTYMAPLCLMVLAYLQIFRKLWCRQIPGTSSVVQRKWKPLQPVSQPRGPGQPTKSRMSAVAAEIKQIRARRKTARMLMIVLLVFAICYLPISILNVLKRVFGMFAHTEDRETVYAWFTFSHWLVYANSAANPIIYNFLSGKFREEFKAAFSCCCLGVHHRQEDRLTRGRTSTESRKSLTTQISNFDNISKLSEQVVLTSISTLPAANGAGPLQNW
The experiment in a line: FLIPR Ca2+ Flux Assay: In a typical experiment the OX1 and OX2 receptor antagonistic activity of the compounds of the present invention was determined in accordance with the following experimental method. For intracellular calcium measurements, Chinese hamster ovary (CHO) cells expressing the rat orexin-1 receptor or the human orexin-2 receptor, are grown in Iscove's modified DMEM containing 2 mM L-glutamine, […], 1% hypoxanthine-thymidine supplement, 100 U/ml penicillin, 100 μg/ml streptomycin and 10% heat-inactivated fetal calf serum (FCS). The cells are seeded at 20,000 cells/well into Becton-Dickinson black 384-well clear bottom sterile plates coated with poly-D-lysine. All reagents were from GIBCO-Invitrogen Corp. The seeded plates are incubated overnight at 37° C. and 5% CO2. Ala-6,12 human orexin-A as the agonist is prepared as a 1 mM stock solution in 1% bovine serum albumin (BSA) and diluted in assay buffer (HBSS containing 20 mM HEPES, 0.1% BSA and 2.5 mM probenecid, pH7.4) for use in the assay at a final concentration of 70 pM. Test compounds are prepared as 10 mM stock solution in DMSO, then diluted in 384-well plates, first in DMSO, then assay buffer. On the day of the assay, cells are washed 3 times with 100 μl assay buffer and then incubated for 60 min (37° C., 5% CO2) in 60 μl assay buffer containing 1 μM Fluo-4AM ester, 0.02% pluronic acid, and 1% BSA. […]. The class given is cell-based. In general terms: Calcium flux is commonly read through the fluorescence of an indicator in the cells.

In general, IC50 refers to the concentration needed to halve the response being measured.

As to `CN(CCN(CC(F)(F)F)C(=O)c1ccccc1-n1nccn1)c1cc(C#N)ccn1`, the IC50 was determined as 113 nM.
